The target in one series is T1, BACE1 (Homo sapiens, UniProt P56817).
T1 construct: Human HEK293 cells which are stably transfected with a vector expressing a cDNA of the human APP wt gene (APP695); endogenous in cells; host or cells: HEK293 stably transfected with human APP695 wt
Nature of the series: Cellular Aβ-lowering assay (Aβ40 ELISA). As to conditions: HEK293 cells stably expressing human APP wt (APP695); Aβ40 in supernatant after 18-20 hrs; read-out: BACE1 cell act. Aβ40 IC50. It counts as cell-based. The protocol: Cellular Aβ-Lowering Assay:
Human HEK293 cells which are stably transfected with a vector expressing a cDNA of the human APP wt gene (APP695) were used to assess the potency of the compounds in a cellular assay. The cells were seeded in 96-well microtiter plates in cell culture medium (Iscove, plus 10% (v/v) fetal bovine serum, glutamine, penicillin/streptomycin) to about 80% confluence and the compounds were added at a 10× concentration in 1/10 volume of medium without FCS containing 8% DMSO (final concentration of DMSO was kept at 0.8% v/v). After 18-20 hrs incubation at 37° C. and 5% CO2 in a humidified incubator the culture supernatant was harvested for the determination of Aβ40 concentrations. 96 well ELISA plates (e.g., Nunc MaxiSorb) were coated with monoclonal antibody which specifically recognize the C-terminal end of Aβ40 (Brockhaus et al., NeuroReport 9, 1481-1486; 1998). After blocking of non-specific binding sites with e.g. 1% BSA and washing, the culture supernatants were added in suitable dilutions together with a horseradish peroxidase-coupled Aβ detection antibody (e.g., antibody 4G8, Senetek, Maryland Heights, Mo.) and incubated for 5 to 7 hrs. Subsequently the wells of the microtiter plate were washed extensively with Tris-buffered saline containing 0.05% Tween 20 and the assay was developed with tetramethylbenzidine/H2O2 in citric acid buffer. After stopping the reaction with one volume 1 N H2SO4 the reaction was measured in an ELISA reader at 450 nm wavelength. The concentrations of Aβ in the culture supernatants were calculated from a standard curve obtained with known amounts of pure Aβ peptide.
In general terms: An ELISA detects its analyte on a solid surface through an enzyme-linked reagent.

A further series in a line: in vivo effect. The following applies: % of control @ 30 mg/kg p.o.
Another series addresses T2, CYP2C9 (Homo sapiens, UniProt P11712).
T2 construct: 0.2 mg/ml pooled human liver microsomes; from tissue; host or cells: pooled human liver microsomes
Nature of the series: CYP inhibition assay, CYP2C9. In kind it is in vitro ADME. The following applies: human liver microsomes, diclofenac 4' hydroxylase; read-out: CYP IC50 2C9. The protocol:
(§1) Inhibition of cytochromes P450 (CYPs) 2C9, 2D6 and 3A4 was assessed using human liver microsomes and CYP-selective substrate metabolism reactions. 50 μl incubations were made up containing (finally) 0.2 mg/ml pooled human liver microsomes, 5 μM substrate (diclofenac for CYP2C9 [4′ hydroxylase], dextromethorphan for CYP2D6 [O-demethylase] or midazolam for CYP3A4 [1′ hydroxylase]), 0.25 μL DMSO containing test inhibitor and NADPH regenerating system. Test inhibitor concentrations of 50, 16.7, 5.6, 1.9, 0.6 and 0.2 μM were assessed in singlicate. Incubations were pre-warmed to 37° C. for 10 minutes before initiation by addition of NADPH regenerating system. Incubations were quenched after 5 minutes (20 minutes for dextromethorphan) by addition of 50 μl cold acetonitrile containing 20 ng/ml 4-OH-diclofenac-13C6, 20 ng/mL dextrorphan-D3 and 20 ng/mL 1-OH-midazolam-D4. Quenched incubates were stored at −20° C. for at least 1 hour before centrifugation (20,000×g, 20 minutes). Supernatants were removed and diluted 1:1 with water prior to analysis using a RapidFire sample injector system and API4000 mass spectrometer. Peak areas for substrate, metabolite and stable-labelled metabolite standard were determined using MS/MS. The peak area ratios between the metabolite generated by the enzymatic reaction and the internal standard were used in subsequent calculations. The percentage of (DMSO) control activity was calculated for each incubate and IC50 values estimated by non-linear regression. Sulfaphenazole, quinidine or ketoconazole were tested in each CYP2C9, CYP2D6 or CYP3A4 inhibition experiment, respectively, to ensure assay sensitivity and reproducibility. (Validated assays for human cytochrome P450 activities, R. L. Walsky and R. S. Obach, Drug Metabolism and Disposition 32: 647-660, 2004. and S. Fowler and H. Zhang, The AAPS Journal, Vol. 10, No. 2, 410-424, 2008.)
For orientation: Microsomes from liver hold many membrane-bound enzymes, among them those of drug oxidation.

The target of series [1] is T3, cathepsin D (from human liver) (Homo sapiens, UniProt P07339).
T3 construct: cathepsin D (from human liver, Calbiochem) diluted in assay buffer; purchased Calbiochem; host or cells: purified from human liver
Nature of the series: Cathepsin D fluorescent substrate kinetic assay. In kind it is biochemical. As to conditions: pH 5.5, substrate […]-MR121. The source says:
(§2) Cathepsin D and Cathepsin E Fluorescent Substrate Kinetic Assays
(§3) The MR121 fluorescence assays described below are based on the fact that MR121 forms a non-fluorescent ground state complex with tryptophan. In solution this formation occurs at millimolar concentrations of tryptophan. The mechanism can be used to design a generic biochemical assay for proteases. A substrate peptide is labeled at the N-terminus with tryptophan and at the C-terminus with the fluorophore MR121 (for cathepsin D the 10 amino acid peptide […]-MR121 was used; for cathepsin E, MR121-[…] was used). In absence of protease activity, the substrates remain intact and the MR121 fluorescence is reduced by the high local Trp-concentration. If the substrates are cleaved by the enzymes the MR121 fluorescence is recovered.
(§4) The fluorescent substrate cathepsin D and cathepsin E kinetic assays were performed at room temperature in 384-well microtiter plates (black with clear flat bottom, non binding surface plates from Corning) in a final volume of 51 μl. The test compounds were serially diluted in DMSO (15 concentrations, ⅓ dilution steps) and 1 μl of diluted compounds were mixed for 10 min with 40 μl of cathepsin D (from human liver, Calbiochem) diluted in assay buffer (100 mM sodium acetate, 0.05% BSA, pH 5.5; final concentration: 200 nM) or with 40 μl of recombinant human cathepsin E (R&D Systems) diluted in assay buffer (100 mM sodium acetate, 0.05% BSA, pH 4.5; final concentration: 0.01 nM). After addition of 10 μl of the cathepsin D substrate […]-MR121 diluted in cathepsin D assay buffer (final concentration: 300 nM) or […] cathepsin E substrate MR121-[…] diluted in cathepsin E assay buffer (final concentration: 300 nM), the plates were strongly shaken for 2 minutes. The enzymatic reaction was followed in a plate: vision reader (Perkin Elmer) (excitation wavelength: 630 nm; emission: 695 nm) for at least 30 minutes in a kinetic measurement detecting an increase of MR121 fluorescence during the reaction time. The slope in the linear range of the kinetic was calculated and the IC50 of the test compounds were determined using a four parameter equation for curve fitting.

In the next series the target is T4, CYP3A4 (Homo sapiens, UniProt P08684).
T4 construct: 0.2 mg/ml pooled human liver microsomes; from tissue; host or cells: pooled human liver microsomes
The series is described as follows: CYP inhibition assay, CYP3A4. It counts as in vitro ADME. The following applies: human liver microsomes, midazolam 1' hydroxylase; read-out: CYP IC50 3A4. Here is the method: as §1

Series [2] in a line: Detection of glutathione conjugates. In kind it is in vitro ADME, human. Set-up: key: NF: in vitro no significant adduct formation relative to control. As to conditions: in vitro, relative to control. The source says: Detection of Glutathione Conjugates
The assay conditions for the detection of glutathione conjugates follow the procedure described by C. M. Dieckhaus et al.

Another series addresses T5, CYP2D6 (Homo sapiens, UniProt P10635).
T5 construct: 0.2 mg/ml pooled human liver microsomes; from tissue; host or cells: pooled human liver microsomes
Nature of the series: CYP inhibition assay, CYP2D6. It counts as in vitro ADME. As to conditions: human liver microsomes, dextromethorphan O-demethylase; read-out: CYP IC50 2D6. Here is the method: as §1

Series [3] has as its target T6, recombinant human cathepsin E (Homo sapiens, UniProt P14091).
T6 construct: purchased R&D Systems
T6 sequence (P14091 54-396): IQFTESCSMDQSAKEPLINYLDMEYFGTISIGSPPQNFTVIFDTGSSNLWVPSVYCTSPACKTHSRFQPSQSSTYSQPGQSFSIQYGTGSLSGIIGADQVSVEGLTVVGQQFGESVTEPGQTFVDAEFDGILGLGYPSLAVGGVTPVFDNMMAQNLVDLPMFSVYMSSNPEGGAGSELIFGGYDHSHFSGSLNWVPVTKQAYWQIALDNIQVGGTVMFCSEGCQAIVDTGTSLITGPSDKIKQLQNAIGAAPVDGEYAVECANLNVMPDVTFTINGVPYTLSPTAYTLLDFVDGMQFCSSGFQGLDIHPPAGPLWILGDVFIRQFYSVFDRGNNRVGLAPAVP
Nature of the series: Cathepsin E fluorescent substrate kinetic assay. In kind it is biochemical. As to conditions: pH 4.5, substrate MR121-[…].
Excerpt: as §2, §3, §4

Another series addresses T7, hERG channel (Homo sapiens, UniProt Q12809).
T7 construct: expressed in transfected cells; host or cells: CHO cells
The series is described as follows: PatchXpress hERG inhibition assay. In kind it is cell-based. The following applies: @ 1 μM; CHO cells transfected with hERG, automated patch clamp. Here is the method: PatchXpress hERG Inhibition Assay
The detailed method to quantify hERG channel inhibition by the automated patch clamp system PatchXpress® 7000A (Molecular Devices, Sunnyvale, Calif.) has been described by Guo et al. (J of Pharmacol & Tox Methods, (2005) 52(1):123-35). In brief, Chinese hamster ovary (CHO) cells transfected with the human ether-a-go-go-related gene (hERG) was cultured in Ex-cell 302 media supplemented with 10% fetal bovine serum, 2 mM glutamine and 0.25 mg/ml geneticin and maintained in a CO2 incubator at 37° C. For patch clamp electrophysiology, the external buffer contained (in mM): 150 NaCl, 10 Hepes, 4 KCl, 1.2 CaCl2, 1 MgCl2, pH 7.4 adjusted with […] and the internal recording solution contained (in mM): 140 KCl, 6 EGTA, 5 Hepes, MgCl2, 5 ATP-Na2, pH 7.2 adjusted with KOH. Once the cell was loaded in the recording chamber and formed a giga ohm seal with the planar glass electrodes (Sealchip™), a whole-cell configuration was achieved by rupturing the cell membrane. The membrane potential was then clamped at −80 mV and the hERG channel activated by a 1-second depolarizing pulse delivered at 0.1 Hz, the hERG current was measured during the 500 ms-repolarizing pulse to −40 mV. After an acceptable hERG current recording was obtained, the cell was first exposed to 0.3% DMSO as the vehicle control, followed by the test article in three ascending, full-log interval concentrations and finally E-4031 at 1 μM (as the positive control) to block the hERG current completely. […] The inhibition of hERG current at each concentration was normalized to that recorded in the vehicle control, and fitted with Hill equation to calculate IC20 and/or IC50.
(In general: The hERG channel carries a current that helps repolarise heart muscle cells.)

T4 sequence (P08684 whole entry): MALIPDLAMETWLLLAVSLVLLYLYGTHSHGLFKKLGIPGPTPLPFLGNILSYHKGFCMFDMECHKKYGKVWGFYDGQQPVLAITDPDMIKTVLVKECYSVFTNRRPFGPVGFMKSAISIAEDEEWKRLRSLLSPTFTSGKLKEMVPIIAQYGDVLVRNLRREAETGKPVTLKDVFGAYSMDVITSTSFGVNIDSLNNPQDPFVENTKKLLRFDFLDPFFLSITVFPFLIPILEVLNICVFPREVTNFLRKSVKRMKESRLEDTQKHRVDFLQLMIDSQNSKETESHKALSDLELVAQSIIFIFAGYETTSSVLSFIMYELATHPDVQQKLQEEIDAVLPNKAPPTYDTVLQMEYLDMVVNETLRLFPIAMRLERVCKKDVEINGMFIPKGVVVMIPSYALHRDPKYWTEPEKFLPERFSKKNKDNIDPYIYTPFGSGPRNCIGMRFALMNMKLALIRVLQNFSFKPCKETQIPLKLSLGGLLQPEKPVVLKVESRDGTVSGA
T5 sequence (P10635 whole entry): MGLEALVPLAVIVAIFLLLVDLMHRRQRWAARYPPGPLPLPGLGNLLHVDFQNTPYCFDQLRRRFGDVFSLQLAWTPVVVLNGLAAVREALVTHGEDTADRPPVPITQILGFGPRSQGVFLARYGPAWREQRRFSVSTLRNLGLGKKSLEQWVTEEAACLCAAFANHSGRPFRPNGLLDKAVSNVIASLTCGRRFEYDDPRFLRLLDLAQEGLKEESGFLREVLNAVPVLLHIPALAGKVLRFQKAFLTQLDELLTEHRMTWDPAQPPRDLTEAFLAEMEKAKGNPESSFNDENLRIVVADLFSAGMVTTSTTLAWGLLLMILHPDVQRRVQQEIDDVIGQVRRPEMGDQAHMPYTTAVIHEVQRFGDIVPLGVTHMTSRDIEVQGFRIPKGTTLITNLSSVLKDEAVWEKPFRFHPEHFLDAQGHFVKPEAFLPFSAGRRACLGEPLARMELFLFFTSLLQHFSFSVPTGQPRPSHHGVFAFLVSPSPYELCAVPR
T2 sequence (P11712 whole entry): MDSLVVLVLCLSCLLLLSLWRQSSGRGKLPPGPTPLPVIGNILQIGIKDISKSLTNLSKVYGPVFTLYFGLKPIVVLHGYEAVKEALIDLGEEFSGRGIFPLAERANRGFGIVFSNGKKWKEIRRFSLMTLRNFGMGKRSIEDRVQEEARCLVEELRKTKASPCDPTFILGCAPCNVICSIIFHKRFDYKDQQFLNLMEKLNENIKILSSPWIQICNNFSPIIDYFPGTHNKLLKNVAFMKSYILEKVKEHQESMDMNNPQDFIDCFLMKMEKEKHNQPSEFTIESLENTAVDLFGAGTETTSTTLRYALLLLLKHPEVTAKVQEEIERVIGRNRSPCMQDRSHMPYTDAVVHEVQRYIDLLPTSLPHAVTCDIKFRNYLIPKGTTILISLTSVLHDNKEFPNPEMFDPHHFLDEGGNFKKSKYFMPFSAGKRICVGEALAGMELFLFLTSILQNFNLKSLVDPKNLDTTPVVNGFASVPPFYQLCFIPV
T3 sequence (P07339 65-162 limits assumed): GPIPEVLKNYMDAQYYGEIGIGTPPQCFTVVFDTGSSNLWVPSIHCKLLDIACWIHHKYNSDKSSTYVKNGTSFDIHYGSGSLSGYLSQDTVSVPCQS
T3 sequence (P07339 169-412 limits assumed): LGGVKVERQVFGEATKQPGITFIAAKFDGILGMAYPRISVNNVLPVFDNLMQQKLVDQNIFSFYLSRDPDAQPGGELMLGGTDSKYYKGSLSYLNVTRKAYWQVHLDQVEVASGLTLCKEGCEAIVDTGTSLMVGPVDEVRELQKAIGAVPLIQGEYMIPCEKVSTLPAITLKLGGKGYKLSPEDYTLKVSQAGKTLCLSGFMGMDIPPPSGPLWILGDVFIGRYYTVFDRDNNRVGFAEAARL
T7 sequence (Q12809 whole entry): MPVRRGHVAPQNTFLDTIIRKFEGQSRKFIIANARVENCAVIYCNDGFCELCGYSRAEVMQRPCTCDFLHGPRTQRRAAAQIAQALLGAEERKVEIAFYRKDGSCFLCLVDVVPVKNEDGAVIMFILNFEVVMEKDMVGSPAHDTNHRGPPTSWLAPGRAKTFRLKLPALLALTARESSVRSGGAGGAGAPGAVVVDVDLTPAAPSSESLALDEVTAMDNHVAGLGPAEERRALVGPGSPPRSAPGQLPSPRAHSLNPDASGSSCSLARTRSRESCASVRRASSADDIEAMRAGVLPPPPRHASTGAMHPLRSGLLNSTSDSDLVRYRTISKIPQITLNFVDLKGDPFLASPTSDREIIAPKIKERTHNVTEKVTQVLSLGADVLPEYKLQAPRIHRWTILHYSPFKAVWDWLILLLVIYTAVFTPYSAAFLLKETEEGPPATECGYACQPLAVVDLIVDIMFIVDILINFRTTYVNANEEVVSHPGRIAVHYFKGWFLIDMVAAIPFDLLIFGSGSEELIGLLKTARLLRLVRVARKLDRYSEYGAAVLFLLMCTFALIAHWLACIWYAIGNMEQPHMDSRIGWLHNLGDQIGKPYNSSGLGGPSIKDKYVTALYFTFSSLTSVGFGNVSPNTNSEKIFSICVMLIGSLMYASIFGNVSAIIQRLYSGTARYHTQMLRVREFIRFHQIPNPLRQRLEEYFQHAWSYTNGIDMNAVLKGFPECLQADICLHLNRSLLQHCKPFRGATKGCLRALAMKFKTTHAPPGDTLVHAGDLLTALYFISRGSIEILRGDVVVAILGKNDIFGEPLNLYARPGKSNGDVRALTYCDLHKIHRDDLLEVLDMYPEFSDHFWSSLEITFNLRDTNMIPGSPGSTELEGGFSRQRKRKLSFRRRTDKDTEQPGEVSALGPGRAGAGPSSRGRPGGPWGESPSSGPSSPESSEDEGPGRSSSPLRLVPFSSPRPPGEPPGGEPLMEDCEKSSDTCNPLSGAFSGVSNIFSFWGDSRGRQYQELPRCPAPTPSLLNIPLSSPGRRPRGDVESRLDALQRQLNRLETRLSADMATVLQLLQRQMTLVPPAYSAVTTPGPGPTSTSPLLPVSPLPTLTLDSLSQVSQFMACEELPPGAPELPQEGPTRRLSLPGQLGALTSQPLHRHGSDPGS
T1 sequence (P56817 46-501): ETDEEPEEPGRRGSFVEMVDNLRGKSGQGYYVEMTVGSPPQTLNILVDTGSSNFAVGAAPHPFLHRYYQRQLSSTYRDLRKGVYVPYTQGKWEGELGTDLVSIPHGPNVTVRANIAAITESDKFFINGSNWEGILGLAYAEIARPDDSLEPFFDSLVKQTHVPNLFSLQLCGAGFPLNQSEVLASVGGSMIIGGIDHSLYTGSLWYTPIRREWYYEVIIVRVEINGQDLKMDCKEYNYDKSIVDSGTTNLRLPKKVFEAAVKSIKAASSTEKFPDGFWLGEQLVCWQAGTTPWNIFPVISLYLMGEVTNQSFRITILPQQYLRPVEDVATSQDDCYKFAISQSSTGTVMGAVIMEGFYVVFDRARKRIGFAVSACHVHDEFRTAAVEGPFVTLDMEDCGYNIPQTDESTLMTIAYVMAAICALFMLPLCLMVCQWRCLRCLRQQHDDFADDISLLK

One may read the IC50 as the concentration needed to halve the response being measured. As to `C[C@]1(c2cc(NC(=O)c3ccc(Cl)cn3)ccc2F)N=C(N)O[C@@H]2CC(F)(F)C[C@@H]21` [Example 1, 5-Chloro-pyridine-2-carboxylic acid [3-((4S,4aR,7aR)-2-amino-6,6-difluoro-4-methyl-4,4a,5,6,7,7a-hexahydro-cyclopenta[e][1,3]oxazin-4-yl)-4-fluoro-phenyl]-amide], the IC50 at BACE1 is 0.0004 µM; on CYP2C9, more than 10 µM; in [1] it was 52 µM; on CYP3A4, more than 10 µM; at CYP2D6, 1 to 10 µM; in series [3], 133 µM. Also, in the series “in vivo effect”, the in vivo effect entry is “A (less than 50% of control @ 30 mg/kg p.o.)”. Moreover, the “GSH human (glutathione adduct formation)” value in [2] was “NF”.

On to `C[C@]1(c2cc(NC(=O)c3ccc(C#N)cn3)ccc2F)N=C(N)O[C@@H]2CC(F)(F)C[C@@H]21` [Example 2, 5-Cyano-pyridine-2-carboxylic acid [3-((4S,4aR,7aR)-2-amino-6,6-difluoro-4-methyl 4,4a,5,6,7,7a-hexahydro-cyclopenta[e][1,3]oxazin-4-yl)-4-fluoro-phenyl]-amide], for which the in vivo effect entry in “in vivo effect” is listed as “A (less than 50% of control @ 30 mg/kg p.o.)”. The IC50 at CYP2C9 was more than 10 µM; in series [1] it was 120 µM; on CYP3A4, more than 10 µM; on CYP2D6, more than 10 µM; in series [3], 101 µM. Besides, the hERG inhibition result on hERG channel was “A (less than 20% inhibition @ 1 μM)”. In addition, the “GSH human (glutathione adduct formation)” value in series [2] is on record as “NF”.
